From patent publication US20160097044A1, “Antimicrobial Enzyme Fusions Reduce Resistance and Kill Intracellular Staphylococcus aureus” (The United States of America, as Represented by the …, priority 2014, published 2016)

Tests used:
[1] = system: intracellular S. aureus Newbould 305 in bovine mammary epithelial cell line (MAC-T); assay: Intracellular S. aureus eradication assay in MAC-T cells; type: cell-based; details: 25 μg in 1 ml DMEM, 2.5 h
From the text: (§1) FIGS. 5a-5e depict peptidoglycan hydrolase-protein transduction domain (PGH-PTD) eradication of intracellular S. aureus in cultured cells. Cultured cells were infected, treated with gentamicin to kill extracellular S. aureus, and then treated with the peptidoglycan hydrolases indicated. All results are standardized to the gentamicin (GENT) only control. Nomenclature of the peptidoglycan hydrolase constructs is as in FIG. 1. Asterisks indicate statistical significance detected with single factor ANOVA (α=0.05) with paired t-test posthoc analyses α=0.05 adjusted with Sidák correction for multiple comparisons (for all cases p<0.01). […] Error bars represent SEM. […] Yellow staining in the combined panel represents intracellular co-localization (in a single plane as determined by z-stack analysis) of both S. aureus and K-L-PTD1 (blue arrow). […]
(§2) Three similar intracellular S. aureus eradication assays from three different labs were optimized for (A) a cultured bovine mammary epithelial cell line (MAC-T, Nexia Biotechnologies, Quebec, Canada; Almeida, supra), (B) primary C57BL/6 mouse-derived osteoblasts (mOBs) (McCall et al. 2008. J. Bone Miner. Res. 23: 30-40) or (C) human brain microvascular endothelial cells (hBMEC; Stins, supra). […] The cell lysate was subjected to serial dilution plating, and the resultant CFUs were counted and normalized to the gentamicin control for each assay. […]

[2] = system: intracellular S. aureus strain UAMS-1 in primary mouse-derived osteoblasts (mOBs); assay: Intracellular S. aureus eradication assay in murine osteoblasts; type: cell-based; details: mOB, 5 μg/ml, 2 h
From the text: as §1, §2

S. aureus = assay: Murine model of staphylococcal osteomyelitis (femur); type: in vivo, C57BL/6J mice; details: 5 mg/kg i.m. at site of infection, twice in 24 h, N=6
Protocol: Neonatal mouse whole calvaria were treated for 4 hours with chimeric peptidoglycan hydrolases or buffer alone, 24 hours post inoculation with GFP-expressing S. aureus. Calvaria were embedded in freeze media, sectioned, and subjected to fluorescence imaging. The image shown is a representative figure for triplicate sections of three separate calvaria. FIG. 8b depicts fluorescence intensity from these sections measured in ImageJ and defined as arbitrary fluorescence standardized to the untreated control. Error bars represent SEM of four replicate experiments. FIG. 8c depicts ex-vivo intracellular S. aureus eradication. Infected calvaria were homogenized and CFU were counted post treatment. Error bars represent SEM. FIG. 8d depicts a murine model of staphylococcal osteomyelitis. C57BL/6J mice were anesthetized and their femurs were surgically exposed. […] The femurs were removed, homogenized, and plated to quantify the bacterial load. […] Asterisks represent statistical significance as determined by one-way ANOVA followed by Tukey's posthoc test.
We utilized a previously described (Marriott, supra) murine model of staphylococcal osteomyelitis that reproduces the clinical and gross pathological phases of inflammatory bone diseases, such as human post-traumatic osteomyelitis. […] Asterisks represent statistical significance as determined by one-way ANOVA followed by Tukey's posthoc test.

Substance: K-L: both LysK lytic domains fused to the N-terminus of lysostaphin; SEQ ID NO:5, protein SEQ ID NO:6
- intracellular S. aureus CFUs relative to gentamicin only control [1]: reduced the intracellular bacteria recovered
- intracellular S. aureus CFUs relative to gentamicin only control [2]: reduced the intracellular bacteria recovered
- bacterial load in femur compared to no treatment (S. aureus): significantly reduced bacterial load as compared to no treatment
